From patent US20250251402A1, “METHODS OF DETECTING MOLECULAR AGGREGATES USING IMAGE CORRELATION SPECTROSCOPY (ICS)” (The General Hospital Corporation, priority 2022, published 2025)

Columns and labels:
Type in all cases: cell-based
OVCA429 cells [1] = experiment: RPA1 immunofluorescence in OVCA429 cells (Imaris Spots, ICS DA)
Text: (§1) For the ICS analysis, nuclei were segmented from the DAPI channel using a watershed approach in MATLAB. Briefly, we applied a difference of gaussians for size-based feature extraction of nuclei in the image (upper gaussian σ=100, lower gaussian σ=2-5 dependent on cell size). This feature enhanced image was then binarized to create a primary mask (using the function imbinarize) and connected components under 100 pixels were removed (using the function bwareaopen). We then created a distance transform of the resulting binary image (using the function bwdist). Seed points were determined by finding the regional maximum of a gaussian filtered image, with a gaussian σ of appropriate size for seed point detection (σ×7 or 8 dependent on cell size). […]
(§2) Using the nucleus masks, we performed ICS analysis on the antibody-stained channel, within size limitations for a nucleus (objects >400 and <2400 pixels). Intensity, DA and TNOP were calculated for each cell. […]
(§3) Imaris spots analysis were performed with Imaris 9.8 with background subtraction, using a spot size of 1 μm that was measured from the smallest distinguishable foci from the control image. […] In each dataset, the automatic “quality” threshold was determined from the control image and the same threshold was used for every image in the dataset to be able to compare the outputs across datasets. […]

OVCA429 cells [2] = experiment: RAD51 immunofluorescence in OVCA429 cells (Imaris Spots, ICS DA)
Text: as §1, §2, §3

OVCA429 cells [3] = experiment: γH2AX immunofluorescence in OVCA429 cells (intensity, Imaris Spots, ICS TNoP and DA)
Text: (§4) For the ICS analysis, nuclei were segmented from the DAPI channel using a watershed approach in MATLAB. Briefly, we applied a difference of gaussians for size-based feature extraction of nuclei in the image (upper gaussian σ=100, lower gaussian σ=2-5 dependent on cell size). This feature enhanced image was then binarized to create a primary mask (using the function imbinarize) and connected components under 100 pixels were removed (using the function bwareaopen). We then created a distance transform of the resulting binary image (using the function bwdist). Seed points were determined by finding the regional maximum of a gaussian filtered image, with a gaussian σ of appropriate size for seed point detection (σ×7 or 8 dependent on cell size). The seed points were applied to the distance transform, and we applied the watershed function to the resulting image to obtain masks for each nucleus (extracted using the function regionprops).
(§5) Using the nucleus masks, we performed ICS analysis on the antibody-stained channel, within size limitations for a nucleus (objects >400 and <2400 pixels). Intensity, DA and TNOP were calculated for each cell. In this analysis, since the ROI is defined by the nucleus mask (segmented from nuclear signal using DAPI staining), TNoP represents the total number of particles per nucleus, with the image area being the number of pixels in each nuclear mask.
(§6) Measurements across experiments were normalized by the control in each dataset. […] Data were plotted in Prism and statistical analysis was performed in Excel.
(§7) Imaris spots analysis were performed with Imaris 9.8 with background subtraction, using a spot size of 1 μm that was measured from the smallest distinguishable foci from the control image. For images with multiple nuclei, ImarisCell was used with the detection type “cell and vesicles”, where the nucleus in the DAPI channel was modelled as the “cell” and antibody-labeled foci were modelled as the “vesicles”. This enabled us to count the number of foci per nucleus for multiple cells. In each dataset, the automatic “quality” threshold was determined from the control image and the same threshold was used for every image in the dataset to be able to compare the outputs across datasets. Similar to the ICS analysis, only cells with an area between 400-2400 voxels were included for analysis.
(§8) All chemicals were purchased from Sigma unless otherwise noted. All drugs were purchased from Selleck Chemicals. Cells were cultured in media supplemented with 10% fetal bovine serum and 1% penicillin/streptomycin. OVCA429 were originally obtained from Dr. Michael Birrer and cultured in DMEM. SKOV3 was obtained from ATCC and cultured in RPMI. For MMS treatment, cells were incubated for 6 hours before fixation with 4% formaldehyde, whereas for treatment with PARP inhibitors, cells were incubated for 24 hours before fixation.
(§9) Cells were plated in 8-well slides (Fisher) to achieve 50% confluence overnight. Cells were then treated and fixed with 4% formaldehyde in PBS at room temperature for 10 minutes. Antibody staining was performed according to the manufacturers protocol (Cell Signaling Technologies or Abcam). Primary antibodies used were γH2AX (CST, #2577), RPA1 (CST, #2267) and RAD51 (Abcam, 63801), with Anti-rabbit IgG Fab2 Alexa Fluor 647 (CST, #4414) as the secondary fluorescent antibody. After antibody labeling, prolong gold with DAPI (CST) was added and samples were stored for up to 1 week prior to imaging. Confocal imaging was performed on an Olympus FV1000 multiphoton/confocal microscope using an Olympus XLUMPlanFL N 20× objective, NA 1.00 with chromatic correction, and 3× digital zoom. DAPI was excited with a 405 nm laser, while Alexa Fluor 647 was excited with a 635 nm laser. A multiband (DM 405/488/561/633 nm) dichroic mirror was used to direct the excitation laser and collect emission. […]

SKOV3 cells [4] = experiment: RPA1 immunofluorescence in SKOV3 cells (Imaris Spots, ICS DA)
Text: as §1, §2, §3

SKOV3 cells [5] = experiment: RAD51 immunofluorescence in SKOV3 cells (Imaris Spots, ICS DA)
Text: as §4, §5
Imaris spots analysis were performed with Imaris 9.8 with background subtraction, using a spot size of 1 μm that was measured from the smallest distinguishable foci from the control image. For images with multiple nuclei, ImarisCell was used with the detection type “cell and vesicles”, where the nucleus in the DAPI channel was modelled as the “cell” and antibody-labeled foci were modelled as the “vesicles”. This enabled us to count the number of foci per nucleus for multiple cells. In each dataset, the automatic “quality” threshold was determined from the control image and the same threshold was used for every image in the dataset to be able to compare the outputs across datasets. […]

SKOV3 cells [6] = experiment: γH2AX immunofluorescence in SKOV3 cells (intensity, Imaris Spots, ICS TNoP and DA)
Text: as §4, §5, §6, §7, §8, §9

With COS(C)(=O)=O [MMS, methyl methane-sulfonate] the “RPA1 Imaris Spots analysis, dose dependence” value (OVCA429 cells [1]; OVCA429) was “more modest increase with increasing MMS dose”, the “RPA1 ICS DA, increase in aggregation” value (OVCA429 cells [1]; OVCA429, 1 mM MMS) was “exceeding 2.5 × of control” and the “RAD51 ICS DA, dose dependence” value (OVCA429 cells [2]) was “dose dependent increases in aggregation”. For the same compound, the “RAD51 Imaris Spots analysis, dose dependence” value (OVCA429 cells [2]) was “did not show an overall MMS dose dependency”, the “ICS DA of γH2AX, dose dependence” value (OVCA429 cells [3]; OVCA429) was “results similar to Spots analysis” and the “ICS TNoP of γH2AX, dose dependence” value (OVCA429 cells [3]; OVCA429) was “did not produce any MMS dose dependence”. For the same compound, the “Imaris Spots analysis of γH2AX, dose dependence” value (OVCA429 cells [3]; OVCA429) was “captured the MMS dose dependent DNA damage”, the γH2AX intensity (OVCA429 cells [3]; OVCA429, 1 mM MMS) was “drastically increases” and the “RPA1 clustering (Spots analysis and ICS DA), dose dependence” value (SKOV3 cells [4]) was “dose dependent increase in RPA1 clustering”. For the same compound, the “RAD51 ICS DA, dose dependence” value (SKOV3 cells [5]; SKOV3) was “dose dependent increases in aggregation”, the “RAD51 Imaris Spots analysis, dose dependence” value (SKOV3 cells [5]; SKOV3) was “did not show an overall MMS dose dependency” and the “RAD51 ICS DA, increase over control” value (SKOV3 cells [5]; SKOV3, 1 mM MMS) was 3 ×. The “ICS degree of aggregation (DA) of γH2AX, dose dependence” value (SKOV3 cells [6]; SKOV3) was “dose dependence” and the “Normalized γH2AX intensity, increase” value (SKOV3 cells [6]; SKOV3, highest MMS dose, normalized to untreated control) was ~8 ×.
